Paper PMC7010297, “How the initiating ribosome copes with ppGpp to translate mRNAs” (PLoS Biology, 2020)
“And” between values parts separate entries of the source, which are not always exact repeats. Identical values can stand only once.

Legend:
[1] = target: T1, 30S IC (30S-bound IF2, Bpy-tRNAi) (Escherichia coli, UniProt P0A705); test: 30S IC formation measured by MST at increasing concentrations of IF2 with guanosine nucleotides; format: binding; conditions: Fig 2A
T1 construct: 6xHis (N); made in house
Description: To monitor the interaction of initiator tRNA and 30S ribosomal subunits, we used Microscale Thermophoresis (MST) with a fluorescently labelled initiator tRNA (Bpy-tRNAi) (Fig 1B). MST allows to measure fluorescence in a constrained space. Changes on the readout derive from molecular drifts resulting from small thermal equilibrium perturbations. Upon equilibrium perturbations, the patterns of Bpy-tRNAi migration away from the observation space are related to bound and unbound states (Fig 1B). […] On the contrary, a decrease in thermophoresis indicated the dissociation of Bpy-tRNAi. The relation between fluorescence measured at both equilibriums (Ff to Fi, after and prior to the perturbation, respectively) as a function of ligand concentration allowed to determine dissociation constants of the interaction (Fig 1C).
Continuous lines indicate nonlinear regression fittings with a quadratic equation. Three measurements were performed; mean and standard deviation are plotted (S1 Data). (B) as (A) to measure the concentration dependence for each tested guanosine nucleotide at constant IF2 (1 μM). […] Continuous lines show best fits using exponential functions. (D) Formation of 70S IC as measured by Bpy-tRNAi accommodation in the P site of the ribosome; 0.1 μM 30S ICs were formed with Bpy-tRNAi and rapidly mixed with 0.3 μM 50S subunits on a stopped-flow apparatus as described in [14]. Colors are as in (C). Continuous lines show best fits using an exponential function for a single reaction step. Each stopped-flow trace results from the mean of 5 to 7 replicates.

30S-bound IF2 (30S IC) = target: T2, 30S-bound IF2 (30S IC) (Escherichia coli, UniProt P0A705); test: ppGpp (or GDP) to GTP competitive assay for 30S IC formation by MST; format: binding
T2 construct: 6xHis (N); made in house
Method: MST was calculated from the respective fluorescence time dependencies (S3 Fig). […] Symbols as in (B). […] Continuous lines indicate nonlinear regression fittings with quadratic (B and E) or same-site competition (G) functions. Three measurements were performed; mean and standard deviations are plotted (S1 Data).
[…] Symbols are as indicated, 3 measurements were performed, and mean and standard deviation are plotted (S1 Data). Continuous lines show nonlinear regression fittings with a same-site inhibition model. […] (PDF) Click here for additional data file.

T1 sequence (P0A705 whole entry, looked up): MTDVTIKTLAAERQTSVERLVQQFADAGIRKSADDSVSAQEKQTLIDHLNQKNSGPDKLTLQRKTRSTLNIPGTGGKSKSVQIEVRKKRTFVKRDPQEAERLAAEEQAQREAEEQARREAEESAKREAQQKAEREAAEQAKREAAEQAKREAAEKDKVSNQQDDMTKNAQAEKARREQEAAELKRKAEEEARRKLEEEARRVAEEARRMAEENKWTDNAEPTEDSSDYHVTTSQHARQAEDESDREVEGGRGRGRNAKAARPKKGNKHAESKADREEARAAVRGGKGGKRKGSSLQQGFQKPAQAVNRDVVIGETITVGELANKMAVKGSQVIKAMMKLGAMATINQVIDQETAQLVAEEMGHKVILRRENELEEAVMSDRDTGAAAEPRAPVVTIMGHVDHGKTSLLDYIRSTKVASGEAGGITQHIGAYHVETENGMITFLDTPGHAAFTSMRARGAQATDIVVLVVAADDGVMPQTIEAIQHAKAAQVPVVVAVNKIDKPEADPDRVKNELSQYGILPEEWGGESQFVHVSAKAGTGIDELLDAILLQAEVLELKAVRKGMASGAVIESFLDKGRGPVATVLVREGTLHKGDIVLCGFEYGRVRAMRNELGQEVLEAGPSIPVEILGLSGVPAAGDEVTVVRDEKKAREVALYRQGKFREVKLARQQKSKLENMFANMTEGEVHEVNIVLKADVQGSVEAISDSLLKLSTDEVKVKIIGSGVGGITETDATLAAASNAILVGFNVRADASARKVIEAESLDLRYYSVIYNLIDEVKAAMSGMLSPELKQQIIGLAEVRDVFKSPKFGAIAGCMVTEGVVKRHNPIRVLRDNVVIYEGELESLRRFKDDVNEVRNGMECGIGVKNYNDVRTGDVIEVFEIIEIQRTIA
T2 sequence (P0A705 whole entry, looked up): as above

## Nc1nc2c(ncn2[C@@H]2O[C@H](COP(=O)(O)OP(=O)(O)O)[C@@H](OP(=O)(O)OP(=O)(O)O)[C@H]2O)c(=O)[nH]1 [ppGpp]
[1]; IF2 0.16 µM, in the presence of the nucleotide
  MST Replicates (a.u.): 941.10 a.u. and 944.88 a.u. and 948.29 a.u.
[1]; IF2 0.31 µM
  MST Average: 944.83 a.u.
  MST Replicates (a.u.): 937.79 a.u. and 942.65 a.u. and 947.01 a.u.
[1]; IF2 0.63 µM
  MST Average: 941.79 a.u.
  MST Replicates (a.u.): 935.48 a.u. and 940.20 a.u. and 943.38 a.u.
[1]; IF2 1.25 µM
  MST Average: 942.39 a.u.
  MST Replicates (a.u.): 936.09 a.u. and 941.10 a.u. and 943.68 a.u.
[1]; IF2 2.50 µM
  MST Average: 949.26 a.u.
  MST Replicates (a.u.): 943.13 a.u. and 948.21 a.u. and 950.30 a.u.
[1]; IF2 5.00 µM
  MST Average: 968.50 a.u.
  MST Replicates (a.u.): 965.17 a.u. and 967.18 a.u. and 969.82 a.u.
30S-bound IF2 (30S IC); mInfA, Log [ppGpp] 0.29
  MST Average: 1046.47 a.u.
30S-bound IF2 (30S IC); mInfA, Log [ppGpp] 0.59
  MST Average: 1038.08 a.u.
30S-bound IF2 (30S IC); mInfA, Log [ppGpp] 0.89
  MST Average: 1028.93 a.u.
30S-bound IF2 (30S IC); mInfA, Log [ppGpp] 1.19
  MST Average: 1018.24 a.u.
  MST Replicates (a.u.): 1017.94 a.u. and 1018.60 a.u. and 1018.17 a.u.
30S-bound IF2 (30S IC); mInfA, Log [ppGpp] 1.49
  MST Average: 1003.04 a.u.
  MST Replicates (a.u.): 1002.79 a.u. and 1003.03 a.u. and 1003.30 a.u.
30S-bound IF2 (30S IC); mInfA, Log [ppGpp] 1.80
  MST Average: 986.30 a.u.
  MST Replicates (a.u.): 985.49 a.u. and 986.54 a.u. and 986.87 a.u.
30S-bound IF2 (30S IC); mInfA, Log [ppGpp] 2.10
  MST Average: 973.31 a.u.
  MST Replicates (a.u.): 972.70 a.u. and 973.61 a.u. and 973.64 a.u.
30S-bound IF2 (30S IC); mInfA, Log [ppGpp] 2.40
  MST Average: 964.30 a.u.
  MST Replicates (a.u.): 963.79 a.u.
30S-bound IF2 (30S IC); mInfA, Log [ppGpp] 2.70
  MST Average: 958.86 a.u.
30S-bound IF2 (30S IC); mInfA, Log [ppGpp] -0.01
  MST Average: 1048.67 a.u.
30S-bound IF2 (30S IC); mInfA, Log [ppGpp] -0.31
  MST Average: 1053.58 a.u.
30S-bound IF2 (30S IC); mInfA, Log [ppGpp] -0.61
  MST Average: 1049.04 a.u.
30S-bound IF2 (30S IC); mMF1, Log [ppGpp] 0.29
  MST Average: 1016.08 a.u.
30S-bound IF2 (30S IC); mMF1, Log [ppGpp] 0.59
  MST Average: 1007.03 a.u.
30S-bound IF2 (30S IC); mMF1, Log [ppGpp] 0.89
  MST Average: 999.03 a.u.
30S-bound IF2 (30S IC); mMF1, Log [ppGpp] 1.19
  MST Average: 986.05 a.u.
  MST Replicates (a.u.): 985.88 a.u. and 986.00 a.u. and 986.26 a.u.
30S-bound IF2 (30S IC); mMF1, Log [ppGpp] 1.49
  MST Average: 972.28 a.u.
  MST Replicates (a.u.): 971.54 a.u. and 972.59 a.u. and 972.70 a.u.
30S-bound IF2 (30S IC); mMF1, Log [ppGpp] 1.80
  MST Average: 959.11 a.u.
  MST Replicates (a.u.): 958.37 a.u. and 959.24 a.u. and 959.71 a.u.
30S-bound IF2 (30S IC); mMF1, Log [ppGpp] 2.10
  MST Average: 947.40 a.u.
  MST Replicates (a.u.): 946.23 a.u. and 947.67 a.u. and 948.30 a.u.
30S-bound IF2 (30S IC); mMF1, Log [ppGpp] 2.40
  MST Average: 939.79 a.u.
  MST Replicates (a.u.): 938.92 a.u.
30S-bound IF2 (30S IC); mMF1, Log [ppGpp] 2.70
  MST Average: 942.02 a.u.
30S-bound IF2 (30S IC); mMF1, Log [ppGpp] -0.01
  MST Average: 1022.73 a.u.
30S-bound IF2 (30S IC); mMF1, Log [ppGpp] -0.31
  MST Average: 1023.54 a.u.
